Results taken from patent publication US5830912A, “Derivatives of 6,8-difluoro-7-hydroxycoumarin” (Molecular Probes, Inc., priority 1996, dated 1998).
Read-outs that look alike come from different tables or passages of the source.

Experiments:
[1] = Quantum yield of selected dyes (Table 3); format: physicochemical
[2] = Photobleaching during illumination in a fluorometer; format: physicochemical; settings: after 33 minutes of illumination in a fluorometer at the wavelength of maximum excitation
Procedure: | *Percent decrease in fluorescence intensity after 33 minutes of | illumination in a fluorometer at the wavelength of maximum excitation.

[3] = pH titration of fluorophores (pKa determination); format: physicochemical
Procedure: The dye of interest is first dissolved in a series of buffers that have each been calibrated using a pH meter. Acetate buffers are typically used in the range of pH 4-6, and phosphate buffers in the pH range 6-8. Absorption measurements are made using solutions that are approximately 10 μM in concentration, and fluorescence measurements are made using solutions that are approximately 1 μM in concentration. The absorption or emission data is then plotted versus pH to determine pKa values.

acid phosphatase = assay: Fluorogenic substrate assay for acid phosphatase activity; format: biochemical
Procedure: (§1) The utility of Compound 6 as a substrate for both alkaline and acid phosphatase is compared with the utility of the non-fluorinated analog, 4-methylumbelliferyl phosphate (MUP).
(§2) 1) Fluorescence yield: For an accurate comparison, the concentrations of the two substrates (initially approximately 10 mM) are matched by normalizing the absorbance of each substrate solution at 319 nm (pH 10) to a value of 0.52 (assuming the extinction coefficient of each substrate is approximately equivalent). The matched samples are then diluted 1:10 into excess enzyme buffer (10 units/mL), and the resulting fluorescence signal is recorded as a function of time (excitation 360 nm, emission 450 nm). The fluorescence yield obtained with acid phosphatase (pH 4.8, citrate buffer) is about 10 times greater when using Compound 6 than that obtained using MUP after one hour (FIG. 4). […] Using alkaline phosphatase (pH 10.4, glycine buffer with 1 mM MgCl2) the fluorescence yield obtained using Compound 6 is approximately 25% greater than that obtained using MUP (FIG. 4);
As above, the substrate samples are matched in concentration by normalizing absorbance values at 316 nm to a value of 0.525, then diluting 1:10.
3) Enzyme sensitivity: Serial dilutions of acid phosphatase are incubated with 50 μM of each substrate for 1 hour at pH 5, then fluorescence intensity at 460 nm is collected following 360 nm excitation.

alkaline phosphatase = assay: Fluorogenic substrate assay with alkaline phosphatase; format: biochemical; settings: pH 10.4 glycine buffer with 1 mM MgCl2, FIG. 4
Procedure: as §1, §2

β-galactosidase = β-galactosidase (Escherichia coli, UniProt P00722); assay: Fluorogenic substrate assay for β-galactosidase activity; format: biochemical; settings: for Km: read-out: Km (Michaelis-Menton constant), 0.01 units β-galactosidase, FIG. 9
β-galactosidase, sequence (P00722 2-1024): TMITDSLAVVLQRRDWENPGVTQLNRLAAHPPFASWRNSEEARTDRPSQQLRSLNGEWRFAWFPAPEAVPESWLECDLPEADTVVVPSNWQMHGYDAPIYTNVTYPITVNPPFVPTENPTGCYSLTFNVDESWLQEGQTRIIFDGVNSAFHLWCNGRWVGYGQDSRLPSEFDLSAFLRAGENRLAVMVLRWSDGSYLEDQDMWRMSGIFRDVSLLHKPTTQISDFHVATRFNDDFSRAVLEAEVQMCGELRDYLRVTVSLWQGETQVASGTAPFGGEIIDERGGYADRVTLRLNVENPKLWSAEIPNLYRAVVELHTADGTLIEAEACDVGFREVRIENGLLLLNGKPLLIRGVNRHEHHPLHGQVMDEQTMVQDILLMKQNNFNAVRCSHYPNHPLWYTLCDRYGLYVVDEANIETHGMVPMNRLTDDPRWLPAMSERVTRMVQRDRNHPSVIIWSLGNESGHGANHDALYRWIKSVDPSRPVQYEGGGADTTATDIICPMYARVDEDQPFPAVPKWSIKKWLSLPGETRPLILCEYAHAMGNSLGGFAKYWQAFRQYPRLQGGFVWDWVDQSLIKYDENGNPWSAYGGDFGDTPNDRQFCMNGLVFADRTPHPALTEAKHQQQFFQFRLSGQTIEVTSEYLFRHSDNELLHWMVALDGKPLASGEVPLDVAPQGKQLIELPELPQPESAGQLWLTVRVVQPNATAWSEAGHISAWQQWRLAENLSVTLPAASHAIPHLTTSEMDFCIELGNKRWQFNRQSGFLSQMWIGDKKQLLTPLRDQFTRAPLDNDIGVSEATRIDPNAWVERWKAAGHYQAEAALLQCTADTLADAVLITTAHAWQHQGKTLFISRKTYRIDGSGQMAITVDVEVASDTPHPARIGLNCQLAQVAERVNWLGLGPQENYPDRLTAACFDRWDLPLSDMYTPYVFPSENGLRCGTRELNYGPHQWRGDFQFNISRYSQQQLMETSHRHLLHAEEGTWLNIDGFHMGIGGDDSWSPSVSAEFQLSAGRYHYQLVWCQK
Procedure: The utility of Compound 9 as a substrate for β-galactosidase is compared with the utility of the non-fluorinated analog, 4-methylumbelliferyl β-D-galactoside (MUG).
1) Fluorescence yield: For an accurate comparison, the concentrations of the two substrates (initially approximately 10 mM) are matched by normalizing the absorbance of each substrate solution at 316 nm (pH 8.3; 20 mM sodium bicarbonate) to a value of 0.5 (assuming the extinction coefficient of each substrate is approximately equivalent). The matched samples are then diluted 1:10 into β-galactosidase buffer pH 7.0, and 2 units enzyme/mL are added. The use of Compound 9 as an enzyme substrate produces an approximately 8-fold signal enhancement over the use of MUG, when the fluorescence is measured at the reaction pH. […] However, even after optimization, the signal derived using Compound 9 (at pH 7.0) is still approximately 4-fold greater than that obtained using MUG (at pH 10).
2) Km determination: In a series of experiments, increasing amounts of each substrate are incubated with 0.01 units of β-galactosidase for 1 hour. The resulting fluorescence is measured by exciting at 360 nm, and the emission is collected at 460 nm.
3) Reaction rate: The fluorescence yield is measured at high substrate concentrations (50 μM) (relative to low enzyme concentration (0.01 units/mL)) over the course of 1 hour to compare reaction rates.
4) Enzyme sensitivity: Serial dilutions of […] are incubated with 50 μM of each substrate for 1 hour at pH 7, then fluorescence intensity at 460 nm is collected (following 360 nm excitation).

[4] = 1 hour, excitation 360 nm, emission 460 nm

Compound | Quantum Yield (pH 9) [1] | Photobleaching: percent decrease in fluorescence intensity [2] | pKa [3] | also measured
Cc1cc(=O)oc2cc(O)ccc12 [7-hydroxy-4-methylcoumarin] | 0.63 | 22% | 7.9 | pKa ([3]; stated in Example 47 for the product of MUG deglycosylation): 7.8
Cc1cc(=O)oc2c(F)c(O)c(F)c(F)c12 | 0.54 |  | 4.2 | 
Cc1cc(=O)oc2c(F)c(OP(=O)(O)O)c(F)cc12 [Compound 6, 6,8-difluoro-7-hydroxy-4-methylcoumarin phosphate, free acid] |  |  |  | Enzyme concentration detection threshold, fold lower than with MUP (acid phosphatase; acid phosphatase 0.00001 to 10 units/mL, 50 μM substrate, 1 hour, pH 5, FIGS. 6 and 7): approximately 10 fold; Initial reaction rate of hydrolysis compared with MUP (acid phosphatase; acid phosphatase 0.01 units/mL, large excess of substrate, pH 4.8 citrate buffer, FIG. 5): significantly higher; Fluorescence signal relative to MUP after raising both reaction solutions to pH 10 (acid phosphatase; acid phosphatase reaction at pH 4.8, then raised to pH 10): twice as large; Sensitivity to enzyme concentration compared with MUP after raising the pH to 10 (acid phosphatase; acid phosphatase, 50 μM substrate, 1 hour at pH 5, then pH 10): approximately twice as sensitive; Fluorescence yield relative to MUP (acid phosphatase; acid phosphatase, pH 4.8 citrate buffer, after one hour, excitation 360 nm, emission 450 nm, FIG. 4): approximately 10 times; Fluorescence yield, increase over MUP (alkaline phosphatase): approximately 25%
Cc1cc(=O)oc2cc(O[C@@H]3O[C@H](CO)[C@H](O)[C@H](O)[C@H]3O)ccc12 [MUG, 4-methylumbelliferyl β-D-galactoside] |  |  |  | Km (β-galactosidase; [4]): ~60 µM
Cc1c(CC(=O)O)c(=O)oc2c(F)c(O)c(F)cc12 [Compound 11, 6,8-difluoro-7-hydroxy-4-methylcoumarin-3-acetic acid] |  |  | ~ 6.2 | 
Cc1cc(=O)oc2c(F)c(O)c(F)cc12 [Compound 4, 6,8-difluoro-7-hydroxy-4-methylcoumarin] | 0.89 | 5% |  | pKa ([3]; Table 3): 4.7
Cc1c(CC(=O)O)c(=O)oc2cc(O)ccc12 [7-hydroxy-4-methylcoumarin-3-acetic acid] |  |  | ~ 7.4 | 
Cc1cc(=O)oc2c(F)c(O[C@@H]3O[C@H](CO)[C@H](O)[C@H](O)[C@H]3O)c(F)cc12 [Compound 9, 6,8-difluoro-7-hydroxy-4-methylcoumarin, β-D-galactopyranoside] |  |  |  | Reaction rate with β-galactosidase compared with MUG (β-galactosidase; 50 μM substrate, 0.01 units/mL enzyme, 1 hour, FIG. 10): react more rapidly; Enzyme concentration detection threshold, fold lower than with MUG (β-galactosidase; 50 μM substrate, 1 hour, pH 7, FIG. 11): approximately 10 fold; Km (β-galactosidase; [4]): ~25 µM; Fluorescence signal enhancement over MUG at the reaction pH (β-galactosidase; β-galactosidase 2 units/mL, pH 7.0, emission 460 nm, excitation 360 nm, FIG. 8): approximately 8 fold; Fluorescence signal (at pH 7.0) relative to MUG optimized at pH 10 (β-galactosidase; β-galactosidase 2 units/mL, MUG reaction raised to pH 10 with NaOH): approximately 4 fold
O=c1oc2c(F)c(O)c(F)cc2cc1-c1nc2ccccc2s1 [Compound 17, 3-benzothiazolyl-6,8-difluoro-7-hydroxycoumarin] |  |  | 5.0 | 
Cc1cc(=O)oc2cc(O)cc(F)c12 | 0.78 | 12% | 5.9 | 

Further lines, with some results ahead:

Quantum Yield (pH 9) [1] | Photobleaching: percent decrease in fluorescence intensity [2] | pKa [3] | Compound | also measured
0.64 | 20% | 6.4 | Cc1cc(=O)oc2cc(O)c(F)cc12 | 
0.34 | 31% | 7.3 | O=c1cc(C(F)(F)F)c2ccc(O)cc2o1 | 
0.23 | 7% | 4.0 | O=c1cc(C(F)(F)F)c2cc(F)c(O)c(F)c2o1 [Compound 20, 6,8-difluoro-7-hydroxy-4-trifluoromethylcoumarin] | 
0.44 | 18% | 5.7 | O=c1cc(C(F)(F)F)c2cc(F)c(O)cc2o1 | 
